Data as given in patent US20160355782A1, “METHOD FOR ENHANCING DIFFERENTIATION OF DOPAMINERGIC NEURONS” (Buddhist Tzu Chi Medical Foundation, priority 2015, published 2016).

Columns and labels:
rat TH promoter = experiment: ChIP at the TH promoter with chromatin from E15.5 VM tissue of treated embryos; type: in vivo; conditions: 10 μg/kg UCN i.p. every 24 h for 3 days
Method: VM precursor cultures were treated with 1 μM UCN for about 1 to 2 days. VM cells for ChIP from rat embryos, the pregnant rats on day 12.5 of gestation were intra-peritoneally injected with saline as control or 10 μg/kg UCN as treatment every 24 h for 3 days before sacrifice. The ventral mesencephalon from E15.5 embryos was dissected. Cells were cross-linked with 1% formaldehyde, and stored at −80° C. before use.
Chromatin immuno-precipitation (ChIP) assays were performed using SimpleChIP® Enzymatic Chromatin IP kit (Cell Signaling Technology, Beverly, Mass.) by the instruction of the kit. Briefly, cross-linked chromatin in the cells was enzymatic digested to generate fragments with a length of approximately 150-900 bp (1 to 5 nucleosomes). The chromatin was subjected to immuno-precipitation using the following antibodies: anti-Nurr1 (Santa Cruz), anti-acetyl histone H3 (Ac-H3), anti-HDAC1, anti-CoREST (all from Upstate Biotechnology), anti-MeCP2 (Chemicon,), anti-Foxa2 (Cell signaling Technology), anti-Pitx3, and IgG (both from Abcam). Immuno-precipitated DNA fragments were collected by protein G magnetic beads. DNA/protein complexes were eluted from the beads and reverse cross-linked at 65° C. for 2 h in the presence of proteinase K. Purified DNA were subjected to real-time PCR using primers specific to rat TH promoter loci (referring to Table 2). […]

[1] = test system: Nurr1-transduced cortical NPCs; experiment: DA uptake assay in Nurr1-transduced cortical NPCs; type: cell-based, rat; conditions: 0.5 μM UCN, 4 days
Method: For lenti-viral transduction, E13 cortical NPCs were incubated with lenti-viruses (25 multiplicity of infection) expressing Nurr1 or GFP containing poly-brene (hexadimethrine bromide, 1 μg/mL, Sigma-Aldrich) for 24 hours. After 1 day of further cell expansion in the presence of the mitogens, cells were induced to differentiate.
For DA uptake assay, cells were washed twice with warm Krebs-Ringer buffer (16 mM sodium phosphate, 119 mM NaCl, 4.7 mM KCl, 1.8 mM CaCl2, 1.2 mM MgSO4, 1.3 mM EDTA and 5.6 mM glucose, pH 7.4), and then incubated with 1 μM [^3H]-dopamine(DA)(60 Ci/mmol, PerkinElmer) in Krebs-Ringer buffer at 37° C. for 20 min. After washing with ice-cold Krebs-Ringer buffer, cells were collected in 1 N NaOH and radioactivity was counted with a liquid scintillation counter. Non-specific uptake was determined in parallel wells that received both the tritiated tracer and 10 μM mazindol. The specific [^3H] DA were calculated by subtracting the amount of radioactivity obtained in the presence of mazindol from that obtained in the absence of mazindol.

midbrain explants = experiment: Midbrain explant cultures, TH+ cell numbers; type: cell-based, rat; conditions: UCN, 3 days
Method: Midbrain explants were dissected from E13.5 embryos by the method known by a person skilled in the art, for example as the protocol described by Baizabal and Covarrubias (2009) and performed with some modifications.
The dorsal midline of the explants was cut and the tissue was placed on porous (0.4 μm) transparent membrane inserts (25-mm in diameter, Nunc, Roskilde, Denmark) with the ventricular surface facing up. Inserts were then placed into six-well culture plates. Each well contained 1.5 mL of MEM medium supplemented with 10% FBS, 100 U/mL penicillin, and 100 μg/mL streptomycin. Explants were incubated at 37° C. with 5% CO2 for 4 hours, after which the explants were incubated in a serum-free DMEM/F12/N2 medium with or without UCN for 3 days. Midbrain explants were then fixed with 4% paraformaldehyde and immuno-histochemical analysis was performed.

[2] = test system: acetylated histone H3 (Ac-H3); experiment: Histone H3 acetylation (Western blot, immuno-staining) in VM precursor cultures; type: cell-based, rat
Method: For immuno-cytochemistry, cells were fixed with 4% paraformaldehyde followed by blocking with PBS containing 0.4% Triton X-100, 3% normal goat serum and 2% bovine serum albumin (BSA) for 1 h at room temperature. After blocking, cells were incubated overnight at room temperature with primary antibodies. Primary antibodies were rabbit anti-UCN (1:200), mouse anti-TH (1:2000) (both from Sigma-Aldrich), goat anti-CRHR1 (1:100), rabbit anti-CRHR2 (1:250), rat anti-dopamine transporter (DAT, 1:200), chicken anti-MAP2 (1:5000) (all from Abcam, Cambridge, Mass.), rabbit anti-Nurr1 (1:100, Santa Cruz Biotechnology), mouse anti-Nurr1 (1:100, R&D Systems, Minneapolis, Minn.), rabbit anti-TH (1:1000), mouse anti-NeuN (1:200) (both from Chemicon, Temecula, Calif.), rabbit anti-acetyl-histone H3 (1:1000, Upstate Biotechnology, Lake Placid, N.Y.), rabbit anti-Foxa2 (1:500, Cell Signaling Technology), and rabbit anti-Pitx3 (1:100, Invitrogen).
For Western blot analysis, VM precursor cells were lysed in M-PER® Mammalian Protein Extraction Reagent (Pierce). Protein concentration was determined by Bradford assay (Bio-Rad, Hercules, Calif.). 30˜50 μg of protein sample was separated on 10˜12% sodium dodecyl sulphate-polyacrylamide gel (SDS-PAGE) and transferred to immobilon polyvinylidene difluoride (PVDF) membranes (Merck Millipore). The membranes were incubated in Tris-buffered saline (TBST, 0.1 M Tris/HCl, pH 7.4, 0.9% NaCl, 0.1% Tween 20) supplemented with 5% non-fat dry milk for 1 h to block nonspecific binding. […] The antigen-antibody complex was detected by using an ECL chemi-luminescence detection system (PerkinElmer, Boston, Mass.). The intensity of the bands was quantified with a GS-800 calibrated densitometer (Bio-Rad), and calculated as the optical density X area of bands.

In the case of Urocortin [UCN], the “Nurr1 binding to the TH promoter regions (NB2, NB3 and repeated CpGs)” value (rat TH promoter) is reported as “more abundant”, the “histone H3 acetylation in TH promoter regions” value (rat TH promoter) is reported as “significantly increased” and the “DA neuronal function as assessed by DA uptake” value [1] is reported as “increased DA neuronal function”. For the same substance, the “number of TH+ cells in midbrain explants” value (midbrain explants) was “increases”, the “Ac-H3-immuno-reactivity in non- or Nurr1-expressing cells” value ([2]; 1 μM UCN, 1 hour) was “increased” and the “levels of Ac-H3 (Western blot)” value ([2]; 1 μM UCN, within minutes) was “significantly increases”. For the same substance, the “duration of histone H3 acetylation” value ([2]; single application of UCN) was “at least 48 hours”.
